Read-outs that look alike come from different tables or passages of the source.
Tests used:
[1] = Everted gut sac transport of REG, mucosal to serosal; assay type: in vitro ADME, rat; settings: for Increase in drug permeability in presence of inhibitor: everted gut sac
Protocol: The everted sac method was used as previously described ([11]). All animal experiments were approved by the local ethics committee of Shahid Beheshti University of Medical Sciences (Tehran, Iran). Male Wistar rats weighing 230 and 250 g were fasted for 24 h but were allowed free access to water. Under deep anesthesia, the jejunum of the rat intestines (approximately 10 cm) was quickly excised, and the underlying mesenterium was removed. The segment was washed several times with normal saline solution and placed immediately into the oxygenated Krebs buffer (composition: NaCl 118 mM, NaHCO3 25 mM, KCl 4.7 mM, CaCl22.5 mM, MgSO4 1.2 mM, KH2PO4 1.2 mM, and d-glucose 11 mM). The intestine was carefully everted on a glass rod (3.0 mm diameter), filled with 2 mL of Krebs buffer, and divided into sacs approximately 4.5 cm in length with silk suture. The sacs were placed in the oxygenated buffer solution (pH 6.8). The solution was maintained at 37 °C with 95% O2 and 5% CO2 throughout the experiment.
Sacs were placed in 25 mL of oxygenated buffer solutions (pH 6.8) containing different concentrations of REG (10 to 100 µM) with or without the P-gp inhibitors at the typically used inhibitory concentrations: verapamil (100 µM), valspodar (5 µM), or ketoconazole (10 µM) ([12]-[14]). At various time points, 10, 20, 35, 45, 60, and 90 min, sacs were removed, blotted dry, and the serosal contents were collected. REG serosal concentration was determined by a validated HPLC method (Section 2.4). Each sac was weighed before and after the experiment to calculate the fluid volume inside the sac.
(§1) HPLC was conducted using a system consisting of a Wellchrom K-1001 HPLC pump and a K-2700 diode array UV/VIS spectrophotometric detector (Knauer, Germany). The analyses were conducted at ambient temperature on a Perfect Sil RP-18 (150 mm × 4.6 mm i.d., Merck). The optimal mobile phase for REG was a mixture of acetonitrile and phosphate buffer 0.02 M (60:40 V/V) delivered at a flow rate of 1 mL/min. The detection wavelength was set at 242 nm and the injection volume was 100 μL. The column temperature was maintained at room temperature. The calibration curves were linear over the concentration range of 100-1000 ng/mL (R^2 > 0.994). The intra-day and inter-day coefficients of the variation (CV) were all less than 5%.
(§2) Apparent permeability coefficients (Papp) of REG were calculated in everted gut sac and Caco-2 cell line according to the below equation ([19]): […]
(§3) Where the dQ/dt (ng/min) is drug permeation rate, A (cm^2) the cross sectional area, and C0 (ng/mL) the initial concentration of REG in the donor chamber. In Caco-2 cell, the Papp of REG was calculated in both apical to basolateral (papp.AB), and basolateral to apical (papp.BA) directions. The efflux ratio (ER) of the drug in Caco-2 cell was assessed by calculating the ratio of papp.BA to papp.AB (papp.BA/papp.AB). TEER was calculated based on the following equation ([16]): […]

P-gp = test: Bi-directional transport of REG across Caco-2 cell monolayers; assay type: in vitro ADME; settings: human, Caco-2, mean ± SD, n = 3; for efflux ratio at 180 min, 40 µM: read-out: ER (efflux ratio, papp.BA/papp.AB)
Protocol: (§4) Caco-2 cells (purchased from Pasteur Institute of Iran) were grown on 75 cm^2 plastic culture flasks, containing 15% (V/V) fetal bovine serum (FBS), 50% RPMI 1640, 34% DMEM and 1% (V/V) penicillin–streptomycin at 37 °C in a 95% humidified air with 5% CO2. The growth medium was changed every other day, and the cells were trypsinized using Trypsin-EDTA every 4 days for passage. The cells with passage numbers of 35-40 were used for the drug transport experiments.
(§5) When reaching 80–90% confluency, for transport study, the cells were seeded on polycarbonate filter inserts (with pore size of 0.4 µm, 1.13 cm^2 surface area, Korea) at a density of 5 × 10^4 cells/cm^2 and grown for 21 days to allow full expression of P-gp and appropriate tight junctions. To evaluate the integrity of cellular monolayer, the transepithelial electrical resistance (TEER) was measured and transport studies were conducted when the TEER values were more than 300-400 Ωcm^2. Before conducting drug transport experiments, the cells were washed twice with HBSS containing 25 mM HEPES (pH 7.4, 37 °C). Then, monolayers were pre-incubated at 37 °C for 30 min, and TEER values were measured. HBSS/HEPES buffer on both sides of the cell monolayers was then removed by aspiration and replaced with REG solution with various concentrations (20, 40 and 60 µM) on one side of the cell layer, apical (A) or basolateral (B), and fresh blank buffer on the other side. The volume of the buffer on the apical and basolateral side of the cell layer was 0.3 mL and 0.7 mL, respectively. The monolayers were incubated at 37 °C, placed in a shaker and shaken at 50 rpm during the transport process. The samples were taken from the receptor chamber (apical side or basolateral side in the case of B-A and A-B transport studies, respectively) at 30, 60, 90, 120 and 180 min, and then replaced with the same volume of the pre-warmed fresh buffer. Each experiment was repeated three times and REG concentration was determined by the HPLC system. The inhibition of REG efflux across Caco-2 cells was examined in the presence of two common P-gp inhibitors: verapamil (100 μM) and valspodar (5 μM).
as §1, §2, §3

Caco-2 cell monolayers [2] = test: as above; assay type: in vitro ADME; settings: Caco-2 results, ER and effect of P-gp inhibitors
Protocol: as §4, §5, §1, §2, §3

[3] = as above; assay type: in vitro ADME; settings: human, Caco-2, mean ± SD, n = 3
Protocol: as §4, §5, §1, §2, §3

Caco-2 cell monolayers [4] = test: Lucifer yellow passage across Caco-2 monolayers (monolayer integrity); assay type: in vitro ADME; settings: 100 µg/mL, 37 °C, all the experiments
Protocol: To determine the cell monolayers integrity, the TEER values and percent of Lucifer yellow transport across the cell monolayers were measured. The TEER was measured using an EVOM 2 Epithelial Voltohmmeter (World Precision Instrument, Sarasota, USA). The transport studies were conducted when the TEER values were more than 300-400 Ωcm^2. A reduction in the TEER recorded across a monolayer indicates the dilation of tight junctions or a disruption of the monolayer ([16], [17]). Lucifer yellow is a small hydrophilic fluorescent molecule that is easily detectable by spectrophotofluorometer (485 nm excitation and 535 nm emission). The paracellular transfer of Lucifer yellow was determined and served as an additional marker for the epithelial cell tightness. In each set of experiments, Lucifer yellow was added (100 µg/mL) to the inserts and its passage was evaluated at 37 °C ([18]).
Where TEERmono is the cell monolayer and porous membrane resistance, TEERblank the porous membrane resistance, and A the porous membrane surface area. The Lucifer yellow transport was calculated according to the following equation ([18]):
Lucifer Yellow Passage% = [(Ft − Fb)/(F0 − Fb)] × 100
Ft is the fluorescence intensity of Lucifer yellow across the monolayer, F0 the initial fluorescence intensity of Lucifer yellow on the donor side, and Fb the fluorescence intensity of the blank sample (HBSS/HEPES buffer alone).

[5] = pH 7.4, with valspodar 5 µM, REG 40 µM + valspodar 5 µM
[6] = pH 7.4, with verapamil 100 µM, REG 40 µM + verapamil 100 µM

**Q.** For CCOc1cc(CC(=O)N[C@@H](CC(C)C)c2ccccc2N2CCCCC2)ccc1C(=O)O [REG, Repaglinide], which “Increase in drug permeability in presence of inhibitor” value (shortened to “Increase … of inhibitor”) ([1]; REG 20 µM plus ketoconazole 10 µM versus control) is on record?
**A.** 3 fold

**Q.** What about the “Increase … of inhibitor” value ([1]; REG 20 µM plus valspodar 5 µM versus control) of the same compound?
**A.** 2.6 fold

**Q.** And the “Increase … of inhibitor” value ([1]; REG 20 µM plus verapamil 100 µM versus control)?
**A.** 3 fold

**Q.** And the “Apparent permeability coefficient (Papp) across everted gut sacs” value ([1]; REG 40 µM, mucosal to serosal, rat jejunum, pH 6.8, mean ± SD, n = 3)?
**A.** 1.23 ± 0.19 × 10^-5 cm/s

**Q.** And the “Apparent permeability coefficient (Papp) across everted gut sacs” value ([1]; REG 100 µM, mucosal to serosal, rat jejunum, pH 6.8, mean ± SD, n = 3)?
**A.** 3.29 ± 0.58 × 10^-5 cm/s

**Q.** And the Papp at 90 min, 40 µM ([1]; male, Wistar, rat, pH 6.8, drug concentration 40 µM, read-out: Papp in everted gut sacs (abstract))?
**A.** 123 nm/s

**Q.** And the Papp at 90 min, 100 µM ([1]; male, Wistar, rat, pH 6.8, drug concentration 100 µM, read-out: Papp in everted gut sacs (abstract))?
**A.** 329 nm/s

**Q.** What about the Papp at 90 min, 10 µM ([1]; male, Wistar, REG 10 µM, mucosal to serosal, rat jejunum, pH 6.8, mean ± SD, n = 3, read-out: Apparent permeability coefficient (Papp) across everted gut sacs) of the same compound?
**A.** 121 ± 14 nm/s

**Q.** What about the Papp at 90 min, 20 µM ([1]; male, Wistar, REG 20 µM, mucosal to serosal, rat jejunum, pH 6.8, mean ± SD, n = 3, read-out: Apparent permeability coefficient (Papp) across everted gut sacs) of the same compound?
**A.** 116 ± 9 nm/s

**Q.** What about the efflux ratio at 180 min, 40 µM (P-gp; Caco-2, pH 7.4, with valspodar 5 µM, REG 40 µM + valspodar 5 µM) of the same compound?
**A.** 0.68 ± 0.07

**Q.** What about the efflux ratio at 180 min, 40 µM (P-gp; Caco-2, pH 7.4, with verapamil 100 µM, REG 40 µM + verapamil 100 µM) of the same compound?
**A.** 0.61 ± 0.09

**Q.** And the Papp A→B at 180 min, 40 µM (P-gp; [5])?
**A.** 164 ± 5 nm/s

**Q.** And the Papp B→A at 180 min, 40 µM (P-gp; [5])?
**A.** 112 nm/s

**Q.** What about the Papp A→B at 180 min, 40 µM (P-gp; [6]) of the same compound?
**A.** 196 ± 27 nm/s

**Q.** And the Papp B→A at 180 min, 40 µM (P-gp; [6])?
**A.** 118 ± 12 nm/s

**Q.** What about the “P-gp substrate recognition (FDA guidance criteria)” value (Caco-2 cell monolayers [2]) of the same compound?
**A.** cannot be considered as a distinct P-gp substrate

**Q.** What about the efflux ratio at 180 min, 20 µM ([3]; Caco-2, pH 7.4, REG 20 µM, read-out: ER (efflux ratio, papp.BA/papp.AB)) of the same compound?
**A.** 0.64 ± 0.02

**Q.** And the efflux ratio at 180 min, 40 µM ([3]; Caco-2, pH 7.4, REG 40 µM, read-out: ER (efflux ratio, papp.BA/papp.AB))?
**A.** 0.65 ± 0.05

**Q.** What about the efflux ratio at 180 min, 60 µM ([3]; Caco-2, pH 7.4, REG 60 µM, read-out: ER (efflux ratio, papp.BA/papp.AB)) of the same compound?
**A.** 0.8 ± 0.07

**Q.** And the Papp A→B at 180 min, 20 µM ([3]; pH 7.4, REG 20 µM)?
**A.** 167 ± 4 nm/s

**Q.** What about the Papp B→A at 180 min, 20 µM ([3]; pH 7.4, REG 20 µM) of the same compound?
**A.** 107 nm/s

**Q.** What about the Papp A→B at 180 min, 40 µM ([3]; pH 7.4, REG 40 µM) of the same compound?
**A.** 184 ± 12 nm/s

**Q.** What about the Papp B→A at 180 min, 40 µM ([3]; pH 7.4, REG 40 µM) of the same compound?
**A.** 119 nm/s

**Q.** What about the Papp A→B at 180 min, 60 µM ([3]; pH 7.4, REG 60 µM) of the same compound?
**A.** 183 ± 4 nm/s

**Q.** And the Papp B→A at 180 min, 60 µM ([3]; pH 7.4, REG 60 µM)?
**A.** 146 nm/s

**Q.** For Lucifer yellow, which “Transport (passage) of Lucifer yellow across the monolayer” value (Caco-2 cell monolayers [4]) is on record?
**A.** < 0.3%

Source: PMC6487404, “An Investigation into the Role of P-Glycoprotein in the Intestinal Absorption of Repaglinide: Assessed by Everted Gut Sac and Caco-2 Cell Line” (Iranian Journal of Pharmaceutical Research : IJPR, 2019)
